Values of other authors, collected in patent EP3137069B1, “NANOPARTICLE FORMULATION CONTAINING FARNESYLTHIOSALICYLIC ACID (SALIRASIB)” (Pehlivan, Sibel, priority 2014, dated 2015).
In brackets after ≈: the same amount, converted by molar mass.

CC(C)=CCCC(C)=CCCC(C)=CCSc1ccccc1C(=O)O [FTA, Farnesylthiosalicylic acid]
solubility in organic solvents (organic solvents like ethanol, DMSO and dimethylformamide): 20 mg/mL (≈ 55.8 mM)
solubility in water (water): insoluble
